Test results as given in patent US8415486B2, “IAP inhibitors” (TetraLogic Pharmaceuticals Corp., priority 2009, dated 2013).
pKd: −log10 of the molar value.

Tests used:
cIAP-1 BIR-3 = target: T1, cIAP-1 BIR-3 (Homo sapiens, UniProt Q13490); assay: Fluorescence polarization binding to cIAP-1 BIR-3 with labeled peptide AbuRPF-K(5-Fam)-NH2; conditions: 40 nM BIR3, 5 nM labeled peptide, reported as ranges, read-out: KD (c-IAP-1 BIR3)
T1 construct: 40 nM of the respective IAP BIR3
Outline: (§1)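 Competitive FP: compounds titrated against 5 nM AbuRPF-K(5-Fam)-NH2 tracer and 40 nM BIR3 protein, 15 min at RT in 0.1 M potassium phosphate pH 7.5 with bovine γ-globulin. Polarization read at 485/520 nm; KD reported in ranges A <0.1, B 0.1–1, C >1–10, D >10 μM.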

[1] = system: ovarian cancer cell line, SK-OV-3; assay: SK-OV-3 cell growth inhibition (MTT, 72 hrs); assay type: cell-based; conditions: Homo sapiens, concentration giving 50% cell survival, reported as ranges
Outline: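 After overnight seeding in McCoy's medium with 10% FBS, SK-OV-3 cells were exposed to compound at 0.003-10 μM for 72 hrs at 37° C. MTT was then added for 3 h, with DMSO solubilization and OD read at 535 nm. CC50 is the concentration giving 50% survival relative to untreated control, reported as ranges.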

XIAP BIR-3 = target: T2, XIAP BIR-3 (Homo sapiens, UniProt P98170); assay: Fluorescence polarization binding to XIAP BIR-3 with labeled peptide AbuRPF-K(5-Fam)-NH2; conditions: 40 nM BIR3, 5 nM labeled peptide, reported as ranges
T2 construct: 40 nM of the respective IAP BIR3
T2 sequence (P98170 241-356 limits assumed): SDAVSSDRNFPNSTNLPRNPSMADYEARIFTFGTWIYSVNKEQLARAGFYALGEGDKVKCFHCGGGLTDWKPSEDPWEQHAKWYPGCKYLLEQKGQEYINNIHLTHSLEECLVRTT
Outline: as §1

T1 sequence (Q13490 253-363 limits assumed): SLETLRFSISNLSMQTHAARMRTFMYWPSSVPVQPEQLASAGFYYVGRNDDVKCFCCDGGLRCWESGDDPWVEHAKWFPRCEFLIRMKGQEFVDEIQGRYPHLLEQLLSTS

Row | Compound | pKd (cIAP-1 BIR-3) | pKd (XIAP BIR-3) | CC50 [1]
1 | CN[C@@H](C)C(=O)N[C@H](C(=O)N1CC[C@@H]2[C@H]1[C@@H](O)CN2C(=O)NC(C)C)C(C)(C)C [Example 61, 4-[3,3-Dimethyl-2-(2-methylamino-propionylamino)-butyryl]-3-hydroxy-hexahydro-pyrrolo[3,2-b]pyrrole-1-carboxylic acid isopropylamide] | 6.00 to 7.00 | < 5.00 | 1000 to 10000 nM
2 | CN[C@@H](C)C(=O)N[C@H](C(=O)N1CC[C@@H]2[C@H]1[C@@H](Oc1ccc(F)c(F)c1)CN2S(C)(=O)=O)[C@@H](C)OC [Example 14, N-{1-[6-(3,4-Difluoro-phenoxy)-4-methanesulfonyl-hexahydro-pyrrolo[3,2-b]pyrrole-1-carbonyl]-2-methoxy-propyl}-2-methylamino-propionamide] | > 7.00 | > 7.00 | < 100 nM
3 | CN[C@@H](C)C(=O)N[C@H](C(=O)N1CC[C@@H]2[C@H]1[C@@H](Oc1ccc(F)c(F)c1)CN2C(C)=O)C(C)(C)C [Example 21, N-{1-[4-Acetyl-6-(3,4-difluoro-phenoxy)-hexahydro-pyrrolo[3,2-b]pyrrole-1-carbonyl]-2,2-dimethyl-propyl}-2-methylamino-propionamide] | > 7.00 | 6.00 to 7.00 | < 100 nM
4 | CN[C@@H](C)C(=O)N[C@H](C(=O)N1CC[C@@H]2[C@H]1[C@@H](OC(=O)Nc1ccccc1)CN2C(=O)NC(C)C)C(C)(C)C [Example 47, Phenyl-carbamic acid 4-[3,3-dimethyl-2-(2-methylamino-propionylamino)-butyryl]-1-isopropylcarbamoyl-octahydro-pyrrolo[3,2-b]pyrrol-3-yl ester] | > 7.00 | 6.00 to 7.00 | < 100 nM
5 | CN[C@@H](C)C(=O)N[C@H](C(=O)N1CC[C@@H]2[C@H]1[C@@H](Oc1ccc(F)c(F)c1)CN2C(=O)NC(C)C)C(C)(C)C [Example 24, 3-(3,4-Difluoro-phenoxy)-4-[3,3-dimethyl-2-(2-methylamino-propionylamino)-butyryl]-hexahydro-pyrrolo[3,2-b]pyrrole-1-carboxylic acid isopropylamide] | > 7.00 | > 7.00 | < 100 nM

Further lines, with some results ahead:

Row | pKd (cIAP-1 BIR-3) | pKd (XIAP BIR-3) | Compound | CC50 [1]
6 | > 7.00 | > 7.00 | CN[C@@H](C)C(=O)N[C@H](C(=O)N1CC[C@@H]2[C@H]1[C@@H](Oc1ccc(F)cc1)CN2C(=O)NC(C)C)C(C)(C)C [Example 29, 4-[3,3-Dimethyl-2-(2-methylamino-propionylamino)-butyryl]-3-(4-fluoro-phenoxy)-hexahydro-pyrrolo[3,2-b]pyrrole-1-carboxylic acid isopropylamide] | < 100 nM
7 | > 7.00 | > 7.00 | CN[C@@H](C)C(=O)N[C@H](C(=O)N1CC[C@H]2NC[C@H](Oc3ccc4c(c3)CCCC4)[C@H]21)C1CCCCC1 [Example 6, N-{1-Cyclohexyl-2-oxo-2-[6-(5,6,7,8-tetrahydro-naphthalen-2-yloxy)-hexahydro-pyrrolo[3,2-b]pyrrol-1-yl]-ethyl}-2-methylamino-propionamide] | < 100 nM
8 | > 7.00 | > 7.00 | CN[C@@H](C)C(=O)N[C@H](C(=O)N1CC[C@@H]2[C@H]1[C@@H](OCc1ccc(F)cc1)CN2C(=O)NC(C)C)C(C)(C)C [Example 37, 4-[3,3-Dimethyl-2-(2-methylamino-propionylamino)-butyryl]-3-(4-fluoro-benzyloxy)-hexahydro-pyrrolo[3,2-b]pyrrole-1-carboxylic acid isopropylamide] | < 100 nM
9 | > 7.00 | 6.00 to 7.00 | CN[C@@H](CF)C(=O)N[C@H](C(=O)N1CC[C@H]2NC[C@H](OCc3ccccc3)[C@H]21)C1CCCCC1 [Example 33, N-[2-(6-Benzyloxy-hexahydro-pyrrolo[3,2-b]pyrrol-1-yl)-1-cyclohexyl-2-oxo-ethyl]-3-fluoro-2-methylamino-propionamide] | > 10000 nM
10 | > 7.00 | 6.00 to 7.00 | CN[C@@H](C)C(=O)N[C@H](C(=O)N1CC[C@H]2NC[C@H](OCc3ccccc3)[C@H]21)C1CCCCC1 [Example 31, (S)—N—((S)-2-((3aR,6S,6aS)-6-(benzyloxy)hexahydropyrrolo[3,2-b]pyrrol-1(2H)-yl)-1-cyclohexyl-2-oxoethyl)-2-(methylamino)propanamide] | 100 to 1000 nM
